The source of these data is patent EP0358766A1, “METHOD OF STERILIZING PLANT ANTHERS” (VSESOJUZNY NAUCHNO-ISSLEDOVATELSKY INST. SELSKOKHOZYAISTV. …, priority 1988, dated 1989).

In test [1] the test system is Winterweizens Sorte Mironowskaya 808. Nature of the test: Field test of gametocidal activity (anther sterilisation), winter wheat Mironowskaya 808. The test is classed as in vivo, Weizen. To be noted: read-out: Prozentsatz der Sterilität %.
For test [2], the system named is tetraploidem Roggen Belta. Nature of the test: Field test of gametocidal activity, tetraploid rye Belta. The test is classed as in vivo. To be noted: period V, 1% aqueous emulsion, 6 kg/ha in 600 l water; for Prozentsatz des Ansetzens von Samen bei freier Bestäubung: control = 100. From the text:
(§1) Die gametozide Aktivität der erfindungsgemäßen Sterilisationsmittel war in Feldversuchen in verschiedenen bodenklimatischen Zonen mit Teilstücken von 10 m^2 Größe in dreibis viermaliger Wiederholung festgestellt. Jedes Sterilisationsmittel wurde mindenstens 5 Jahre lang geprüft.
(§2) Die Entwicklung der Perioden der Organogenese wird zytologisch überwacht. Die Behandlung von Pflanzen mit dem Sterilisationsmittel erfolgt am Anfang der fünften Periode der Organogenese nach Kupermann.
(§3) Mit dem Ährenschieben verwirklicht man die Isolierung von Hauptähren und anderen Stockwerken in Pergametbeuteln. Bei Weizen und Tritikale werden Einzelisolatoren benutzt. Bei Roggen schließt man je 1 Ähre von […] verschiedenen nebeneinander befindlichen Pflanzen unter einen gemeinsamen Isolator ein. Bei Hirse wird jede Rispe getrennt isoliert. Der Sterilitätsprozentsatz (X) für Weizen, Roggen, Tritikale und Hirse wird nach der Formel [formula] ermittelt.
(§4) Die Kornzahl in nicht isolierten Ähren von Kontrollpflanzen wird bedingt für 100 % Ansetzen bei freier Bestäubung angenommen.
(§5) Um zuverlässige Angaben zu erhalten, verwendet man 20 bis 25 Isolatoren je Wiederholung für Weizen und Tritikale, 10 bis 15 Isolatoren jeder Wiederholung für Roggen und Hirse.
Pflanzen von tetraploidem Roggen Belta werden in der V.Periode der Organogenese (nach Kupermann) mit einer 1%igen wäßrigen Emulsion von 1,1,3-Tribrompropan, 1,1,3--Tribrom-4-chlorbutan, 1,1,2,3-Tetrabrompropan, 1,2,3-Tribrompropan, 1,1,3-Tribrom-3-chlorpropan bzw. 1,2-Dibrom--3-chlorpropan behandelt.
Die Emulsion enthält 0,5 Masse% C12-C14-Kalziumalk^yl-benzolsulfonat und 0,01 Masse% Dimethylsulfoxid. Der Verbrauch an Präparat beträgt 6 kg/ha bei 600 1 Wasserdurchsatz.Die Prüfergebnisse sind in der Tabelle 7 angegeben. Die gleichen Ergebnisse sind bei der Behandlung von tetraploidem Roggen Belta in der VI. Periode der Organogenese erhalten.

In test [3] the test system is diploidem Roggen Chulpan. In words: Field test of gametocidal activity, diploid rye Chulpan. The test is classed as in vivo. To be noted: for Kornzahl der Ähre bei freier Bestäubung / Kornzahl der Ähre im Isolator / Prozentsatz des Ansetzens von Samen bei freier Bestäubung: Chulpan, period V, 1% aqueous emulsion, 10 kg/ha; for Prozentsatz des Ansetzens von Samen bei freier Bestäubung: control = 100; for pest or weed control at 10000 g/ha: read-out: Prozentsatz der Sterilität.
Excerpt: as §1, §2, §3, §4, §5
Pflanzen von diploidem Roggen Chulpan werden in der V.Periode der Organogenese mit einer 1%igen wäßrigen Emulsion von 1,1,3-Tribrompropan, 1,1,3-Tribrom-4-chlorbutan, 1,1,2,3-Tetrabrompropan, 1,2,3-Tribrompropan, 1,2-Dibrompropan, 1,1,3-Tribrom-3-ohlorpropan, 1,2-Dibrom-3--chlorpropan, 1,3-Dibrompropan, 1,1,1,3-Tetrabromheptan, 1,1,3-Tribromheptan bzw. 1,2-Dibromheptan behandelt. Die Emulsion enthält 0,5 Masse% C12-C14-Kalziumalkylbenzolsul- fonat und 0,01 Masse% Dimethylsulfoxid. Der Verbrauch an Präparat beträgt 10 kg/ha. Die Prüfergebnisse sind in der Tabelle 11 angegeben. Die gleichen Ergebnisse sind bei der Behandlung von diploidem Roggen Chulpan in der VI. Periode der Organogenese erhalten.

The test system of test [4] is Sommerweizens Sorte Moskowskaya 35. In words: Field test of gametocidal activity, spring wheat Moskowskaya 35. The test is classed as in vivo, Weizen. To be noted: for Kornzahl der Ähre bei freier Bestäubung / Kornzahl der Ähre im Isolator / Prozentsatz des Ansetzens von Samen bei freier Bestäubung: Moskowskaya 35, period V, 1% aqueous emulsion, 6 kg/ha in 600 l water; for Prozentsatz des Ansetzens von Samen bei freier Bestäubung: control = 100; for pest or weed control at 6000 g/ha: read-out: Prozentsatz der Sterilität.
Excerpt: as §1, §2, §3, §4, §5
Pflanzen des Sommerweizens Sorte Moskowskaya 35 werden in der V. Periode der Organogenese (nach Kupermann) mit einer l%igen wäßrigen Emulsion von 1,1,3-Tribrompropan, […], 1,1,2,3-Tetrabrompropan, 1,2,3-Tribrompropan, 1,2-Dibrompropan, 1,1,3-Tribrom-3-chlorpropan, 1,2-Dibrom-3-chlorpropan, 1,3-Dibrompropan, 1,1,1,3-Tetrabromheptan bzw. 1,1,3-Tribromheptan behandelt. Die Emulsion enthält als Emulgierungsmittel 0,5 Masse% C12-C14-Kalzium- alkylbenzolsulfonat und als Adjuvans 0,01 Masse% Dimethylformamid. Der Verbrauch an Präparat beträgt 6 kg/ha bei 600 1 Wasserdurchsatz. Als Kontrolle dienen Pflanzen, behandelt mit dem Verdünner ohne Sterilisationsmittel.
Die Prüfergebnisse sind in der Tabelle 2 angegeben. Die gleichen Ergebnisse sind bei der Behandlung des Sommerweizens Sorte Moskowskaya 35 in der VI.Periode der Organogenese erhalten.

Test [5] deals with diploidem Roggen Voskhod 2. Nature of the test: Field test of gametocidal activity, diploid rye Voskhod 2. The test is classed as in vivo. To be noted: period V, 1% aqueous emulsion, 10 kg/ha in 1000 l water; for Prozentsatz des Ansetzens von Samen bei freier Bestäubung: control = 100.
Excerpt: as §1, §2, §3, §4, §5
Pflanzen von diploidem Roggen Voskhod 2 werden in der V. Periode der Organogenese mit einer 1%igen wäßrigen Emulsion von 1,1,3-Tribrompropan, 1,1,3-Tribrom-4-chlorbutan bzw. 1,1,2,3-Tetrabrompropan behandelt. Die Emulsion enthält 0,5 Masse% C12-C14-Kalziumalkylbenzolsulfonat und 0,01 Masse% Dimethylformamid. Der Verbrauch an Präparat beträgt 10 kg/ha bei 1000 1 Wasserdurchsatz. Die Prüfergebnisse sind in der Tabelle 14 angegeben. Die gleichen Ergebnisse sind bei der Behandlung von diploidem Roggen Voskhod 2 in der VI. Periode der Organogenese erhalten..

Test [6] deals with Winterweizens Sorte Mironowskaya 808. In words: Field test of gametocidal activity (anther sterilisation), winter wheat Mironowskaya 808. The test is classed as in vivo, Weizen. To be noted: Mironowskaya 808, period V of organogenesis, 2% aqueous emulsion, 20 kg/ha in 1000 l water; for Prozentsatz des Ansetzens von Samen bei freier Bestäubung: control = 100.
Excerpt: as §1, §2, §3, §4, §5
Pflanzen des Winterweizens Sorte Mironowskaya 808 werden in der V.Periode der Organogenese durch Zerstäubung der 2%igen wäßrigen Emulsion von 1,1,3-Tribrompropan mit Hilfe einer Rückenspritze behandelt.
Als Emulgierungsmittel setzt man 0,5 Masse% C12-C14--Kalziumalkylbenzolsulphonat zu. Als Adjuvans enthält die Emulsion 0,01 Masse% Dimethylsulfoxid. Der Verbrauch an Präparat beträgt 20 kg/ha bei 1000 Liter Wasserdurchsatz. Als Kontrolle dienen Pflanzen, behandelt mit einem Verdünner ohne Sterilisationsmittel. Die Ergebnisse sind in der Tabelle 1 angegeben.
Der ProzeB wird analog zu dem in Beispiel 1 beschriebenen durchgeführt. Als Sterilisationsmittel verwendet man eine 2%ige waßrige Emulsion von 1,1,3-Tribrom-4-chlorbutan, 1,1,2,3-Tetrabrompropan. Die Prüfergebnisse sind in der Tabelle 1 angegeben.
Der Prozeß wird analog zu dem in Beispiel 1 beschriebenen durchgeführt, nur daß man 1%ige wäßrige Emulsion von 1,2,3-Tribrompropan, 1,2-Dibrompropan, 1,1,3-Tribrom-3--chlorpropan, 1,2-Dibrom-3-chlorpropan, 1,3-Dibrompropan, 1,1,1,3-Tetrabromheptan, 1,1,3-Tribromheptan, 1,2-Dibromheptan verwendet. Die Präparatdosis beträgt 10 kg ha. Die Prüfergebnisse sind in der Tabelle 1 angegeben. Die gleichen Ergebnisse sind bei der Behandlung des Weizens Sorte Mironowskaya 808 in der VI. Periode der Organogenese erhalten.

For the compound `ClCC(Br)CC(Br)Br` (stereo not shown) [Beispiel 2, 1,1,3-Tribrom-4-chlorbutan], the pest or weed control at 1 %, 20000 g/ha in test [1] worked out at 97.3%. Further, in test [2], the “Kornzahl der Ähre bei freier Bestäubung” value was 42,6, the “Kornzahl der Ähre im Isolator” value is on record as 0,8, the “Prozentsatz der Sterilität” value is given as 98,0% and the “Prozentsatz des Ansetzens von Samen bei freier Bestäubung” value is recorded as 96,4%. Moreover, in test [3], the “Kornzahl der Ähre bei freier Bestäubung” value is listed as 47,8, the “Kornzahl der Ähre im Isolator” value was 1,0, the “Prozentsatz des Ansetzens von Samen bei freier Bestäubung” value is listed as 95,4% and the pest or weed control at 10000 g/ha was 98%. For the same compound, in test [4], the “Kornzahl der Ähre bei freier Bestäubung” value is 36,5, the “Kornzahl der Ähre im Isolator” value is recorded as 0,6, the “Prozentsatz des Ansetzens von Samen bei freier Bestäubung” value is on record as 95,5% and the pest or weed control at 6000 g/ha was 99.2%. In addition, in test [5], the “Kornzahl der Ähre bei freier Bestäubung” value is 52,4, the “Kornzahl der Ähre unter Isolator” value was 1,0, the “Prozentsatz der Sterilität” value is 97,2% and the “Prozentsatz des Ansetzens von Samen bei freier Bestäubung” value was 96,0%. In addition, in test [6], the “Kornzahl der Ähre bei freier Bestäubung” value is 41,3, the “Kornzahl der Ähre im Isolator” value is reported as 1,1 and the “Prozentsatz des Ansetzens von Samen bei freier Bestäubung” value is 86,0%.

Regarding `BrCC(Br)C(Br)Br` (stereo not shown) [Beispiel 3, 1,1,2,3-Tetrabrompropan], the pest or weed control at 1 %, 20000 g/ha in test [1] worked out at 97.3%. Also, in test [2], the “Kornzahl der Ähre bei freier Bestäubung” value was 40,1, the “Kornzahl der Ähre im Isolator” value is given as 0,6, the “Prozentsatz der Sterilität” value was 98,5% and the “Prozentsatz des Ansetzens von Samen bei freier Bestäubung” value is given as 90,7%. In test [3], the “Kornzahl der Ähre bei freier Bestäubung” value is 44,3, the “Kornzahl der Ähre im Isolator” value was 0,4, the “Prozentsatz des Ansetzens von Samen bei freier Bestäubung” value was 88,4% and the pest or weed control at 10000 g/ha is 99.2%. Moreover, in test [4], the “Kornzahl der Ähre bei freier Bestäubung” value is 31,8, the “Kornzahl der Ähre im Isolator” value is 0,3, the “Prozentsatz des Ansetzens von Samen bei freier Bestäubung” value is on record as 83,2% and the pest or weed control at 6000 g/ha turned out to be 99.1%. In test [5], the “Kornzahl der Ähre bei freier Bestäubung” value is reported as 45,7, the “Kornzahl der Ähre unter Isolator” value is recorded as 0,2, the “Prozentsatz der Sterilität” value is given as 99,6% and the “Prozentsatz des Ansetzens von Samen bei freier Bestäubung” value is recorded as 83,7%. For the same compound, in test [6], the “Kornzahl der Ähre bei freier Bestäubung” value was 35,1, the “Kornzahl der Ähre im Isolator” value was 1,0 and the “Prozentsatz des Ansetzens von Samen bei freier Bestäubung” value is listed as 94,1%.
